Measured values from PubChem BioAssay AID743118 (The Scripps Research Institute Molecular Screening Center, 2013).
pIC50: −log10 of the molar value.

How the values were obtained:
[1] = target: Acyl-protein thioesterase 2 (Homo sapiens) (UniProt O95372); experiment: APT1/APT2 inhibition IC50 by competitive ABPP – cell lysate, HeLa soluble proteome, fluorescence gel, in vitro, late-stage follow-up (AID 743118); settings: gel-based ABPP FP-Rh fluorescence, LYPLA2
[2] = target: Acyl-protein thioesterase 1 (Homo sapiens) (UniProt O75608); experiment: as above; settings: gel-based ABPP FP-Rh fluorescence, LYPLA1
Chain of Acyl-protein thioesterase 1 (Homo sapiens) (O75608 whole entry, looked up): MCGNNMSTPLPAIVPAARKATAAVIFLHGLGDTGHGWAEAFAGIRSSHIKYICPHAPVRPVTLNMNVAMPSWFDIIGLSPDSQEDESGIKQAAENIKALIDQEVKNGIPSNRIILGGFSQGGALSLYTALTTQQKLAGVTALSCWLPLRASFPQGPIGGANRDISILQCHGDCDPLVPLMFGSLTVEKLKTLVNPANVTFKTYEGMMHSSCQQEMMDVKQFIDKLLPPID

Chain of Acyl-protein thioesterase 2 (Homo sapiens) (O95372 whole entry, looked up): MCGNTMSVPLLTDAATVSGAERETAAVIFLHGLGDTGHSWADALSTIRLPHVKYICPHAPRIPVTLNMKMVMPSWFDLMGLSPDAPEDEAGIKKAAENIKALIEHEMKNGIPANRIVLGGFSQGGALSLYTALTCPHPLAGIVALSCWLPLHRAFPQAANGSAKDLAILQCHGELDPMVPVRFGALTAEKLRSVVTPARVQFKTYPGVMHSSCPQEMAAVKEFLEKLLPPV

Row | SMILES | pIC50 [1] | pIC50 [2]
1 | O=C(ON1C(=O)C2CN(C(=O)N3CCOCC3)CCN2C1=O)N1CCC(CCc2ccc(Cl)cc2)CC1 (stereo not given) | 6.61 | 6.91
2 | O=C(ON1C(=O)C2CN(C(=O)c3ccc(Br)cc3)CCN2C1=O)N1CCC(CCc2ccc(Cl)cc2)CC1 (stereo not given) | 6.14 | 6.51
3 | O=C(ON1C(=O)C2CN(C(=O)N3CCCCC3)CCN2C1=O)N1CCC(CCc2ccc(Cl)cc2)CC1 (stereo not given) | 6.59 | 6.81
4 | O=C(ON1C(=O)C2CN(C(=O)N3CCCC3)CCN2C1=O)N1CCC(CCc2ccc(Cl)cc2)CC1 (stereo not given) | 6.42 | 6.65
5 | CC(C)(C)CC(=O)N1CCN2C(=O)N(OC(=O)N3CCC(CCc4ccc(Cl)cc4)CC3)C(=O)C2C1 (stereo not given) | 6.66 | 7.04
